Read-outs that look alike come from different tables or passages of the source.
Columns and labels:
Y2 receptor = target: T1, Y2 receptor (Homo sapiens, UniProt P49146); test: Y2 receptor binding assay ([125I]PYY, membrane protein); conditions: read-out: hNPY2 IC50
T1 sequence (P49146 1-381): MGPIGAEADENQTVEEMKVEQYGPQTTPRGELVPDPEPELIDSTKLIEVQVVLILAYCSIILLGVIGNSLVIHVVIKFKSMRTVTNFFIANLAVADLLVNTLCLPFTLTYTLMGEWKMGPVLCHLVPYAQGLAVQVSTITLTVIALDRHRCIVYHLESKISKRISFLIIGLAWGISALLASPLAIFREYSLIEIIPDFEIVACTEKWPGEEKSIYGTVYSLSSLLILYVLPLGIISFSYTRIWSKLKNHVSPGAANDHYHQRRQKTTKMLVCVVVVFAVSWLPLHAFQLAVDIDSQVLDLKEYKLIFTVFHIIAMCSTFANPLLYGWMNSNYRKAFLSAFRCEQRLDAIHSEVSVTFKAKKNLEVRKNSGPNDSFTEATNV
Protocol: B. Human Y2 and Y4/PP1 Receptor Binding Assays
Binding assays were performed on GF/C Millipore 96-well plates pretreated with 0.02% polyethylenimine. The binding buffer for rat Y2 binding is Krebs-Ringer bicarbonate (pH 7.4) containing 0.01% BSA and 0.005% bacitracin. Samples consist of membrane protein, 25 pM [1251]PYY and drug dilution. Nonspecific binding is defined by 1 μM NPY. The binding buffer for human Y4/PP1 binding consists of 137 mM NaCl, 5.4 mM KCl, 0.44 mM KH2PO4, 1.26 mM CaCl2, 0.81 mM MgSO4, 20 mM HEPES, 1 mM dithiothreitol, 0.1% bacitracin, 100 mg/l streptomycin sulfate, 1 mg/l aprotinin, 10 mg/ml soybean trypsin inhibitor and 0.3% BSA, pH 7.4. Samples consist of membrane protein, 50 pM human [1251]human PP (hPP: NEN DuPont, Boston, Mass.) and drug dilution. 1 μM hPP is used to define nonspecific binding.
After a 2 hour incubation at room temperature with constant mixing, the samples are aspirated on a vacuum manifold, and rinsed with ice-cold binding buffer. The amount of radioactivity in each well is quantitated with either gamma counting or liquid scintillation.

Human NPY5 receptor = target: T2, Human NPY5 receptor (Homo sapiens, UniProt Q15761); test: Human NPY5 receptor binding assay ([125I]PYY, membrane protein); conditions: [125I]PYY binding, read-out: hNPY5 IC50
T2 sequence (Q15761 1-445): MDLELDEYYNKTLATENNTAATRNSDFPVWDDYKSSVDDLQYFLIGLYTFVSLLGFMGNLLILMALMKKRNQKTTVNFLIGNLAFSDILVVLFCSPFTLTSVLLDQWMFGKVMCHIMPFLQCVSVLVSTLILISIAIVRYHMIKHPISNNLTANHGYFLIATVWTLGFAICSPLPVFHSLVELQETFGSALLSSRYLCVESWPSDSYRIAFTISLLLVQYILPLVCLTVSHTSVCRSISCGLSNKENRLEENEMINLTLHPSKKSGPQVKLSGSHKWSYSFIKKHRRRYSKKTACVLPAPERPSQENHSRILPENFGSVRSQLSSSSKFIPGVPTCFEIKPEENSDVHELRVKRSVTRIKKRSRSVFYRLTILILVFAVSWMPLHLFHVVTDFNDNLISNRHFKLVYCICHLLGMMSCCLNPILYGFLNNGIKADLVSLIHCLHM
Protocol: C. Human and Rat NPY5 Receptor Binding Assays
Binding assays are performed on GF/C Millipore 96well plates pretreated with 0.02% polyethylenimine. The binding buffer is 25 mM Tris, 120 mM NaCl, 5 mM KCl, 1.2 mM KH2PO4, 2.5 mM CaCl2, 1.2 mM MgSO4, 0.1% BSA and 0.5 mg/ml bacitracin, pH 7.4. Samples consist of membrane protein, 75-100 pM [125I]PYY (porcine, NEN-DuPont) and drug dilution. Nonspecific binding is defined by 1 μM PYY. After a 2 hour incubation at room temperature with constant mixing, the samples are aspirated on a vacuum manifold, and rinsed with ice-cold binding buffer. The amount of radioactivity in each well is quantitated with either gamma counting or liquid scintillation.

[1] = [125I]PYY binding, membrane protein

Compound | IC50 (Y2 receptor; [1]) | IC50 (Human NPY5 receptor) | IC50 (Y2 receptor)
O=C(CN1CCC(O)CC1)Nc1ccc(C(=O)c2ccccc2)cc1 [Compound 42, N-(4-Benzoyl-phenyl)-2-(4-hydroxy-piperidin-1-yl)-acetamide] | > 5 µM | 1.6 µM | 
O=C(CNCC1CCNCC1)Nc1ccc(C(=O)c2ccccc2)cc1 [Compound 43, N-(4-Benzoyl-phenyl)-2-[(piperidin-4-ylmethyl)-amino]-acetamide] | > 5 µM | > 10 µM | 
N#CC1(c2ccccc2)CCN(CC(=O)Nc2ccc(C(=O)c3ccccc3)cc2)CC1 [Compound 44, N-(4-Benzoyl-phenyl)-2-(4-cyano-4-phenyl-piperidin-1-yl)-acetamide] |  | 0.093 µM | > 5 µM
O=C(CN1CCC(N2CCCC2)CC1)Nc1ccc(C(=O)c2ccccc2)cc1 [Compound 45, N-(4-Benzoyl-phenyl)-2-(4-pyrrolidin-1-yl-piperidin-1-yl)-acetamide] | > 5 µM | 8.5 µM | 
CNC1(C(N)=O)CCN(CC(=O)Nc2ccc(C(=O)c3ccccc3)cc2)CC1 [Compound 46, 1-[(4-Benzoyl-phenylcarbamoyl)-methyl]-4-methylamino-piperidine-4-carboxylic acid amide] | > 5 µM | 0.005 µM | 
NC(=O)C1(Nc2ccccc2)CCN(CC(=O)Nc2ccc(C(=O)c3ccccc3)cc2)CC1 [Compound 47, 1-[(4-Benzoyl-phenylcarbamoyl)-methyl]-4-phenylamino-piperidine-4-carboxylic acid amide] | > 5 µM | 1.2 µM | 
CCNC1(C(N)=O)CCN(CC(=O)Nc2ccc(C(=O)c3ccccc3)cc2)CC1 [Compound 48, 1-[(4-Benzoyl-phenylcarbamoyl)-methyl]-4-ethylamino-piperidine-4-carboxylic acid amide] | > 5 µM | 0.02 µM | 
CN(C)C1CCN(CC(=O)Nc2ccc(C(=O)c3ccccc3)cc2)CC1 [Compound 49, N-(4-Benzoyl-phenyl)-2-(4-dimethylamino-piperidin-1-yl)-acetamide] | > 5 µM | 8.8 µM | 
CC1CCN(CC(=O)Nc2ccc(C(=O)c3ccccc3)cc2)CC1 [Compound 50, N-(4-Benzoyl-phenyl)-2-(4-methyl-piperidin-1-yl)-acetamide] | > 5 µM | 2.2 µM | 
CC1(C)CCN(CC(=O)Nc2ccc(C(=O)c3ccccc3)cc2)CC1 [Compound 51, N-(4-Benzoyl-phenyl)-2-(4,4-dimethyl-piperidin-1-yl)-acetamide] | > 5 µM | 3.3 µM | 
O=C(CN1CCC(CCC2CCNCC2)CC1)Nc1ccc(C2CCCCC2)cc1 [Compound 54, N-(4-Cyclohexyl-phenyl)-2-[4-(2-piperidin-4-yl-ethyl)-piperidin-1-yl]-acetamide] | > 5 µM | 7.3 µM | 
O=C(CN1CCC(CCC2CCNCC2)CC1)Nc1ccc(C(=O)c2ccccc2)cc1 [Compound 55, n-(4-Benzoyl-phenyl)-2-[4-(2-piperidin-4-ylethyl)-piperidin-1-yl]-acetamide] | > 5 µM | > 10 µM | 
CC(=O)NCC1(c2ccccc2)CCN(CC(=O)Nc2ccc(C(=O)c3ccccc3)cc2)CC1 [Compound 56, 2-[4-(Acetylamino-methyl)-4-phenyl-piperidin-1-yl]-N-(4-benzoyl-phenyl)-acetamide] | > 5 µM | 0.208 µM | 
N#CC(c1ccccc1)C1CCN(CC(=O)Nc2ccc(C(=O)c3ccccc3)cc2)CC1 (centres unmarked) [Compound 57, N-(4-Benzoyl-phenyl)-2-[4-(cyano-phenyl-methyl)-piperidin-1-yl]-acetamide] | > 5 µM | 0.005 µM | 
O=C(CN1CCC2(CC1)C(=O)NCN2c1ccccc1)Nc1ccc(C(=O)c2ccccc2)cc1 [Compound 58, N-(4-Benzoyl-phenyl)-2-(4-oxo-1-phenyl-1,3,8-triaz-spiro[4.5]dec-8-yl)-acetamide] | > 5 µM | 2 µM | 
CC(O)C1CCN(CC(=O)Nc2ccc(C3CCCCC3)cc2)CC1 (centres unmarked) [Compound 59, N-(4-Cyclohexyl-phenyl)-2-[4-(1-hydroxy-ethyl)-piperidin-1-yl]-acetamide] | > 5 µM | 0.65 µM | 
O=C(CN1CCC(O)(CCCc2ccccc2)CC1)Nc1ccc(C(=O)c2ccccc2)cc1 [Compound 60, N-(4-Benzoyl-phenyl)-2-[4-hydroxy-4-(3-phenyl-propyl)-piperidin-1-yl]-acetamide] | > 5 µM | 4.2 µM | 
O=C(CN1CCC(O)(CCCc2ccccc2)CC1)Nc1ccc(C2CCCCC2)cc1 [Compound 61, N-(4-Cyclohexyl-phenyl)-2-[4-hydroxy-4-(3-phenyl-propyl)-piperidin-1-yl]-acetamide] | > 5 µM | 9.5 µM | 
O=C(CN1CCC(O)(c2cccc(C(F)(F)F)c2)CC1)Nc1ccc(C(=O)c2ccccc2)cc1 [Compound 63, N-(4-Benzoyl-phenyl)-2-[4-hydroxy-4-(3-trifluoromethyl-phenyl)-piperidin-1-yl]-acetamide] | > 5 µM | 0.57 µM | 
CN(C)C1(C(N)=O)CCN(CC(=O)Nc2ccc(C(=O)c3ccccc3)cc2)CC1 [Compound 64, 1-[(4-Benzoyl-phenylcarbamoyl)-methyl]-4-dimethylamino-piperidine-4-carboxylic acid amide] | > 5 µM | 4.8 µM | 
CCCOC1(c2ccccc2)CCN(CC(=O)Nc2ccc(C(=O)c3ccccc3)cc2)CC1 [Compound 66, N-(4-Benzoyl-phenyl)-2-(4-phenyl-4-propoxy-piperidin-1-yl)-acetamide] | > 5 µM | 0.78 µM | 
O=C(CN1CCC(CCCC2CCN(CCO)CC2)CC1)Nc1ccc(C(=O)c2ccccc2)cc1 [Compound 67, N-(4-Benzoyl-phenyl)-2-(4-{3-[1-(2-hydroxy-ethyl)-piperidin-4-yl]-propyl}-piperidin-1-yl)-acetamide] | > 5 µM | > 10 µM | 
O=C(CN1CCC(CCCC2CCN(CCO)CC2)CC1)Nc1ccc(C2CCCCC2)cc1 [Compound 68, N-(4-Cyclohexyl-phenyl)-2-(4-{3-[1-(2-hydroxy-ethyl)-piperidin-4-yl]-propyl}-piperidin-1-yl)-acetamide] | > 5 µM | 9.7 µM | 
CCC(=O)C1(c2ccccc2)CCN(CC(=O)Nc2ccc(C(=O)c3ccccc3)cc2)CC1 [Compound 69, N-(4-Benzoyl-phenyl)-2-(4-phenyl-4-propionyl-piperidin-1-yl)-acetamide] | > 5 µM | 0.003 µM | 
CC(O)C1CCN(CC(=O)Nc2ccc(C(=O)c3ccccc3)cc2)CC1 (centres unmarked) [Compound 70, N-(4-Benzoyl-phenyl)-2-[4-(1-hydroxy-ethyl)-piperidin-1-yl]-acetamide] | > 5 µM | 3.7 µM | 
Cc1ccc(C2(O)CCN(CC(=O)Nc3ccc(C(=O)c4ccccc4)cc3)CC2)cc1 [Compound 71, N-(4-Benzoyl-phenyl)-2-(4-hydroxy-4-p-tolyl-piperidin-1-yl)-acetamide] | > 5 µM | 0.22 µM | 
O=C(CN1CCC(C(=O)N2CCCCC2)(c2ccccc2)CC1)Nc1ccc(C2CCCCC2)cc1 [Compound 72, N-(4-Cyclohexyl-phenyl)-2-[4-phenyl-4-(piperidine-1-carbonyl)-piperidin-1-yl]-acetamide] | > 5 µM | 1 µM | 
O=C(CN1CCC(C(=O)N2CCCCC2)(c2ccccc2)CC1)Nc1ccc(C(=O)c2ccccc2)cc1 [Compound 73, N-(4-Benzoyl-phenyl)-2-[4-phenyl-4-(piperidine-1-carbonyl)-piperidin-1-yl]-acetamide] | > 5 µM | > 5 µM | 
